The results in this text go back to PubChem BioAssay AID1996.

The structures appear in SMILES notation. Converted amounts (≈) assume the structure as drawn.

For this data set the following is noted: buffer; pH 7.4; 200.0 µM.
In turn, `Cc1ccc(C2CCN(C(=S)NC3CCCCC3)C2)cc1` (stereo not given) returned a kinetic solubility of 1.3 µg/mL (≈ 4.3 µM).

As for `CC1(C)CC(NC(=O)N2c3ccccc3Sc3ccccc32)CC(C)(C)N1`, the kinetic solubility stood at 43.1 µg/mL (≈ 113 µM).

Compound `CS(=O)(=O)Nc1ccc2c(c1)ncn2CCc1ccccc1` showed a solubility (kinetic) greater than 47.3 µg/mL.

On to `COc1ccc(OCC(O)CN(C)C(=O)C(C)Oc2ccccc2)cc1` (stereo not given), for which the kinetic solubility is greater than 53.9 µg/mL.

For the compound `COc1ccc(N2C(=O)CSC2c2cccc(F)c2)cc1` (stereo not given), the solubility (kinetic) worked out at 29.2 µg/mL (≈ 96.3 µM).

With `O=C(O)c1nn2cc(CCO)cnc2c1Cl`, the solubility (kinetic) is greater than 36.2 µg/mL.

The compound `O=C(/C=C/c1ccco1)Nc1ccc2c(c1)OCCO2` came in with a solubility (kinetic) greater than 40.7 µg/mL.

`COc1ccccc1NS(=O)(=O)c1cc(N)ccc1N1CCOCC1` gave a kinetic solubility of 5 µg/mL (≈ 13.8 µM).

As to `CCOc1ccccc1C(=O)Nc1cc(C)ccc1NC(=O)c1ccco1`, the kinetic solubility came to 43.4 µg/mL (≈ 119 µM).

Compound `COc1cccc(C(=O)Nc2ccccc2-c2ccccc2)c1` returned a solubility (kinetic) of 24 µg/mL (≈ 79.1 µM).

In turn, `O=[N+]([O-])c1cccnc1SCc1ccccc1` came in with a kinetic solubility of 0.3 µg/mL (≈ 1.22 µM).

Compound `CCCCNC(=O)c1cc2c(=O)n(CC)c3ccccc3c2s1` displayed a kinetic solubility of less than 0.4 µg/mL.

Consider `CC1CN(CC(=O)Nc2ccc(Br)cn2)CC(C)O1` (stereo not given), for which the kinetic solubility is greater than 49.2 µg/mL.

Turning to `Cc1ccc(-n2c(=O)[nH]c3ncccc3c2=O)cc1`, the kinetic solubility was 6.9 µg/mL (≈ 27.2 µM).

The compound `CC(Sc1nc(N)cc(N)n1)C(=O)NCC1CCCO1` (stereo not given) came in with a solubility (kinetic) greater than 44.6 µg/mL.

The compound `CC(=O)N/N=C(\C)c1cccc(C(F)(F)F)c1` returned a solubility (kinetic) greater than 36.6 µg/mL.

In turn, `O=C(O)C1CCCN1C(=O)NC1CCCCC1` (stereo not given) came in with a solubility (kinetic) of 30.4 µg/mL (≈ 127 µM).

In turn, `Cc1cccn2c(NC(=O)c3ccccc3F)c(-c3ccccc3)nc12` returned a solubility (kinetic) of 2.6 µg/mL (≈ 7.53 µM).

`CC(=O)Nc1ccc(CN2CCCCCC2)cc1`: the solubility (kinetic) is 33.9 µg/mL (≈ 138 µM).

On to `O=C(COC(=O)c1cccc(F)c1)NC(=O)NC1CCCC1`, for which the solubility (kinetic) came to 41.4 µg/mL (≈ 134 µM).

`CC(=O)Nc1ccc(NC(=O)COC(=O)Cn2cnc3ccccc32)cc1` yielded a kinetic solubility greater than 55 µg/mL.

Turning to `COc1ccc(NC(=O)COC(=O)Cn2cnc3ccccc32)cc1`, the solubility (kinetic) was greater than 50.9 µg/mL.

Compound `Cc1cccc(C)c1NC(=S)N/N=C/c1ccc(C(=O)O)cc1` came in with a solubility (kinetic) greater than 49.1 µg/mL.

As for `CC(C)c1ccc(NC(=O)CCCN2C(=O)NC(C)(C)C2=O)cc1`, the kinetic solubility was determined as 37.8 µg/mL (≈ 114 µM).

`O=C(NC(=S)Nc1cccc(Cl)c1Cl)C1CC1`: the kinetic solubility amounted to 0.8 µg/mL (≈ 2.77 µM).

As for `COc1ccc(/C=C/C(=O)N(C)C2CCCCC2)cc1Br`, the solubility (kinetic) turned out to be 18 µg/mL (≈ 51.1 µM).

On to `CC(=O)c1sc(-c2ccccc2)nc1C`, for which the kinetic solubility was 13.9 µg/mL (≈ 64 µM).

`CC(C)NCc1nnc(-c2ccccc2Cl)o1` yielded a solubility (kinetic) greater than 37.8 µg/mL.

As to `COc1ccc(CNC(=O)COC(=O)CCc2c[nH]c3ccccc23)cc1`, the kinetic solubility amounted to 44.4 µg/mL (≈ 121 µM).

`O=Cc1sc(N2CCOCC2)nc1-c1ccccc1` showed a kinetic solubility of 4.5 µg/mL (≈ 16.4 µM).

Regarding `Cc1noc(C)c1C(=O)OC(C)C(=O)Nc1ccc2c(c1)OCO2` (stereo not given), the kinetic solubility turned out to be 11.8 µg/mL (≈ 35.5 µM).

In turn, `O=C(Nc1cc2c3c(c1)CC(=O)N3CCC2)c1ccc(F)cc1` had a kinetic solubility greater than 46.5 µg/mL.

In turn, `COc1ccccc1CCNS(=O)(=O)c1cn(C)nc1C` gave a kinetic solubility greater than 46.4 µg/mL.

Compound `CC(C)c1ccc2nc(SCC(=O)NCC3CCCO3)c(C#N)cc2c1` (stereo not given) came in with a kinetic solubility of 2.4 µg/mL (≈ 6.5 µM).

Compound `COc1ccc(Cl)cc1NC(=O)COC(=O)c1ccc(Br)o1` showed a solubility (kinetic) of 2.6 µg/mL (≈ 6.69 µM).

Consider `CC(=O)c1ccccc1NS(=O)(=O)c1cccc2nonc12`, for which the kinetic solubility is 0.9 µg/mL (≈ 2.84 µM).

`COc1ccc(Nc2ncnc3sccc23)cc1OC` showed a kinetic solubility of 36.9 µg/mL (≈ 128 µM).

`CCNc1nc(N)c(C(=O)C23CC4CC(CC(C4)C2)C3)s1` yielded a solubility (kinetic) of 2 µg/mL (≈ 6.55 µM).

`FC(F)(F)c1ccnc(NCc2ccco2)n1` displayed a kinetic solubility of 9.2 µg/mL (≈ 37.8 µM).

As for `COc1ccc(CNC(=O)COC(=O)c2ccc3ccccc3n2)cc1`, the kinetic solubility was 16.3 µg/mL (≈ 46.5 µM).

As for `COc1cccc(-n2c(O)c(C=NCCN3CCNCC3)c(=O)[nH]c2=S)c1`, the solubility (kinetic) is greater than 58.4 µg/mL.

As for `O=C(CN1C(=O)NC2(CCCCCCC2)C1=O)Nc1c(Cl)cccc1Cl`, the solubility (kinetic) was found to be 7.4 µg/mL (≈ 18.6 µM).

As for `O=C(NCCC1=CCCCC1)C(=O)NCCc1ccc(Cl)cc1`, the solubility (kinetic) is less than 0.4 µg/mL.

Compound `CCOC(=O)CCCCCN1C(=O)c2cccc3cccc(c23)C1=O` had a kinetic solubility of 6.4 µg/mL (≈ 18.9 µM).

In turn, `CC(=O)Nc1ccc(NC(=O)C(C)OC(=O)CC23CC4CC(CC(Br)(C4)C2)C3)cc1` (stereo not given) showed a kinetic solubility greater than 71.6 µg/mL.

For the compound `CN(C(=O)CSc1nc2ccccc2c(=O)n1-c1ccccc1F)C1CCS(=O)(=O)C1` (stereo not given), the solubility (kinetic) was 16.2 µg/mL (≈ 35.1 µM).

With `Cc1ccc2nc(Br)c3c(c2c1)OC(CBr)C3` (stereo not given), the solubility (kinetic) is 9.7 µg/mL (≈ 27.2 µM).

As for `O=C(COC(=O)c1cnccn1)NC1CCCc2ccccc21` (stereo not given), the solubility (kinetic) is greater than 46.7 µg/mL.

Compound `Cc1cccc(-c2noc(CNS(=O)(=O)c3ccccc3)n2)c1` registered a solubility (kinetic) greater than 49.4 µg/mL.

In turn, `COc1ccc(OCC(=O)Nc2nccs2)cc1` had a solubility (kinetic) of 39.1 µg/mL (≈ 148 µM).

In turn, `Cc1ccc(NC(=O)CSc2nc(C)c(C)c(C)n2)cc1S(=O)(=O)N1CCOCC1` came in with a solubility (kinetic) of 4.2 µg/mL (≈ 9.32 µM).

As to `O=C(/C=C/c1ccco1)OCC(=O)N1CCCCC1`, the solubility (kinetic) was greater than 39.5 µg/mL.

`O=C(Cn1c(NCCO)nc2ccccc21)NCC1CCCO1` (stereo not given) yielded a solubility (kinetic) greater than 47.8 µg/mL.

In the case of `COc1ccccc1N1CCN(C(=O)c2ccco2)CC1`, the kinetic solubility is greater than 42.9 µg/mL.

Take `N#Cc1nc(-c2ccc(F)cc2)oc1NCCCn1ccnc1`: the solubility (kinetic) is 2.5 µg/mL (≈ 8.03 µM).

For `Cc1cc(/C=C(\C#N)C(=O)Nc2ccccc2F)c(C)[nH]1`, the solubility (kinetic) was 0.8 µg/mL (≈ 2.82 µM).

With `Fc1ccc(Br)cc1SCCc1ccncc1`, the solubility (kinetic) is 19.7 µg/mL (≈ 63.1 µM).

The compound `O=C(NCCOc1ccccc1)C(=O)NCC1CCCO1` (stereo not given) returned a kinetic solubility greater than 43.9 µg/mL.

The compound `Cc1ccc(O)c(CO)n1` gave a solubility (kinetic) greater than 20.9 µg/mL.

Take `CC1CC(C)CN(C(=O)C2CC(=O)N(c3ccc(F)cc3)C2)C1` (stereo not given): the kinetic solubility turned out to be 34.7 µg/mL (≈ 109 µM).

For `O=C(COc1ccccc1[N+](=O)[O-])NCCC1=CCCCC1`, the kinetic solubility amounted to 31.8 µg/mL (≈ 104 µM).

`O=C(Nc1ccccc1)Nc1ccc2ccccc2n1` returned a solubility (kinetic) of less than 0.2 µg/mL.

`COc1ccc(C(=O)NC2CC3CCCC(C2)N3CC(C)C)cc1` (stereo not given): the solubility (kinetic) is greater than 49.6 µg/mL.

`COCCN1C2=C(COC(C)(C)C2)C(=S)NC1c1ccccc1` (stereo not given) yielded a kinetic solubility greater than 49.9 µg/mL.

Turning to `CCc1ccc(S(=O)(=O)NCC(O)COc2ccc(OC)cc2)cc1` (stereo not given), the solubility (kinetic) worked out at 51.9 µg/mL (≈ 142 µM).

`CC(CN1CCCCC1)OC(=O)COc1ccc(Cl)cc1.Cl` (stereo not given): the kinetic solubility is greater than 52.2 µg/mL.

`COc1ccc(Cl)cc1C(=O)NCCCn1ccnc1`: the solubility (kinetic) is greater than 44.1 µg/mL.

The compound `COc1ccc(C(=O)OC(C)CN2CCOCC2)cc1.Cl` (stereo not given) registered a solubility (kinetic) greater than 47.4 µg/mL.

In turn, `CC1(C)C(=O)Nc2ccccc2N1C(=O)COC(=O)c1cccs1` came in with a solubility (kinetic) of 9.6 µg/mL (≈ 27.9 µM).

The compound `O=C(O)Cn1cnc2c(oc3ccccc32)c1=O` gave a kinetic solubility greater than 36.6 µg/mL.

For `CN(c1ccccc1)c1nccc(=O)[nH]1`, the solubility (kinetic) is greater than 30.2 µg/mL.

With `O=C(C(Cl)Cl)N1CCN(Cc2ccc3c(c2)OCO3)CC1`, the solubility (kinetic) is 42.6 µg/mL (≈ 129 µM).

The compound `COc1ccc(NC2CC(=O)N(c3cc([N+](=O)[O-])ccc3C)C2=O)cc1` (stereo not given) yielded a kinetic solubility greater than 53.3 µg/mL.

Turning to `O=C1Cc2ccccc2C(=O)N1Cc1cccc(Cl)c1`, the solubility (kinetic) stood at 12.2 µg/mL (≈ 42.7 µM).

On to `CCCC(CNC(=O)COC(=O)C1=NNC(=O)CC1)c1ccc(Cl)cc1Cl` (stereo not given), for which the kinetic solubility was greater than 62.1 µg/mL.

The term solubility (kinetic) denotes solubility judged after dilution from a stock solution rather than from solid.
